# In patent US20200222474A1, “COMPOSITIONS AND METHODS FOR INCREASING PHYTOCHEMICAL BIOAVAILABLITY AND BIOACTIVITY” (North Carolina State University, priority 2017, published 2020):
# System: L. acidophilus NCFM
# Assay: RNA-seq transcriptional analysis of L. acidophilus NCFM growing on plant glycosides
# Type: cell-based, Lactobacillus acidophilus
# [1] = LBA1955 Transcription regulator family protein, COG K
# [2] = gene LBA0046 (Hypothetical protein)
# [3] = gene LBA0149 (Putative nucleotide-binding protein)
# [4] = gene LBA0263 (Hypothetical protein)
# [5] = gene LBA0282 (Hypothetical protein)
# [6] = gene LBA0327 (Replication protein)
# [7] = gene LBA0328 (Hypothetical protein)
# [8] = gene LBA0330 (Hypothetical protein)
# [9] = gene LBA0457 (Hypothetical protein)
# [10] = gene LBA0485 (Hypothetical protein)
# [11] = gene LBA0486 (Hypothetical protein)
# [12] = gene LBA0487 (Hypothetical protein.)
# [13] = gene LBA0492 (Hypothetical protein)
# [14] = gene LBA0541 (Cadmium-transporting ATPase)
# [15] = gene LBA0542 (Putative heavy-metal-transporting alpase)
# [16] = gene LBA0543 (Hypothetical protein)
# [17] = gene LBA0544 (Transcriptional regulator)
# [18] = gene LBA0555 (Myosin-crossreactive antigen)
# [19] = gene LBA0564 (HAD family hydrolase)
# [20] = gene LBA0574 (ABC multi drug exporter)
# [21] = gene LBA0575 (ABC multi drug exporter)
# [22] = gene LBA0604 (Immunity protein)
# [23] = gene LBA0605 (Putative hydrolase)
# [24] = gene LBA0608 (Hypothetical protein)
# [25] = gene LBA0631 (Hypothetical protein)
# [26] = gene LBA0649 (Myosin-crossreactive antigen)
# [27] = gene LBA0728 (Hypothetical protein LBA0728)
# [28] = gene LBA1025 (Aldo/keto reductase family oxidoreductase)
# [29] = gene LBA1026 (Aldo/keto reduetase family oxidoreductase)
# [30] = gene LBA1206 (Hypothetical protein)
# [31] = gene LBA1401 (Peroxidase (Npx))
# [32] = gene LBA1435 (Hypothetical protein)
# [33] = gene LBA1455 (Putative surface layer protein)
# [34] = gene LBA1656 (Hypothetical protein)
# [35] = gene LBA1675 (Hypothetical protein)
# [36] = gene LBA1676 (ATP-dependent helicase)
# [37] = gene LBA1683 (Putative magnesium-transporting atpase)
# [38] = gene LBA1704 (N-Acetylmuramic acid-6-phosphate etherase)
# [39] = gene LBA1740 (Hypothetical protein)
# [40] = gene LBA1752 (Hypothetical protein)
# [41] = gene LBA1769 (Hypothetical protein)
# [42] = gene LBA1793 (Hypothetical protein)
# [43] = gene LBA1869 (Beta-phosphoglueomutase)
# [44] = gene LBA1895 (Hypothetical protein)
smiles,measurement,setting,value
OC[C@H]1O[C@@H](O[C@H]2[C@H](O)[C@@H](O)[C@@H](O)O[C@@H]2CO)[C@H](O)[C@@H](O)[C@H]1O [Lac],Log2 differential normalized TPM ratio compared to glucose,"LBA1878 Glycerol kinase, COG C",0
same,Transcripts per million (rpm),"LBA1878 Glycerol kinase, COG C",8.9 rpm
same,Log2 differential normalized TPM ratio compared to glucose,[1],−0.4
same,Transcripts per million (rpm),[1],403.9 rpm
same,Log2 differential normalized TPM ratio compared to glucose,[2],0.7
same,Transcripts per million (rpm),[2],506.3 rpm
same,Log2 differential normalized TPM ratio compared to glucose,[3],0.8
same,Transcripts per million (rpm),[3],850.2 rpm
same,Log2 differential normalized TPM ratio compared to glucose,[4],0.7
same,Transcripts per million (rpm),[4],27 rpm
same,Log2 differential normalized TPM ratio compared to glucose,[5],0.6
same,Transcripts per million (rpm),[5],32.7 rpm
same,Log2 differential normalized TPM ratio compared to glucose,[6],0.2
same,Transcripts per million (rpm),[6],9.5 rpm
same,Log2 differential normalized TPM ratio compared to glucose,[7],−0.1
same,Transcripts per million (rpm),[7],13.2 rpm
same,Log2 differential normalized TPM ratio compared to glucose,[8],0.3
same,Transcripts per million (rpm),[8],26.6 rpm
same,Log2 differential normalized TPM ratio compared to glucose,[9],1
same,Transcripts per million (rpm),[9],977.4 rpm
same,Log2 differential normalized TPM ratio compared to glucose,[10],2.4
same,Transcripts per million (rpm),[10],1078 rpm
same,Log2 differential normalized TPM ratio compared to glucose,[11],2.8
same,Transcripts per million (rpm),[11],1593.4 rpm
same,Log2 differential normalized TPM ratio compared to glucose,[12],1.3
same,Transcripts per million (rpm),[12],82.6 rpm
same,Log2 differential normalized TPM ratio compared to glucose,[13],2.4
same,Transcripts per million (rpm),[13],44.2 rpm
same,Log2 differential normalized TPM ratio compared to glucose,[14],2
same,Transcripts per million (rpm),[14],167.4 rpm
same,Log2 differential normalized TPM ratio compared to glucose,[15],2.2
same,Transcripts per million (rpm),[15],409.6 rpm
same,Log2 differential normalized TPM ratio compared to glucose,[16],2.3
same,Transcripts per million (rpm),[16],345.9 rpm
same,Log2 differential normalized TPM ratio compared to glucose,[17],2
same,Transcripts per million (rpm),[17],416.6 rpm
same,Log2 differential normalized TPM ratio compared to glucose,[18],1.9
same,Transcripts per million (rpm),[18],165.8 rpm
same,Log2 differential normalized TPM ratio compared to glucose,[19],0.5
same,Transcripts per million (rpm),[19],1.5 rpm
same,Log2 differential normalized TPM ratio compared to glucose,[20],0.3
same,Transcripts per million (rpm),[20],109.5 rpm
same,Log2 differential normalized TPM ratio compared to glucose,[21],0.2
same,Transcripts per million (rpm),[21],93 rpm
same,Log2 differential normalized TPM ratio compared to glucose,[22],0.5
same,Transcripts per million (rpm),[22],20.8 rpm
same,Log2 differential normalized TPM ratio compared to glucose,[23],1
same,Transcripts per million (rpm),[23],5.5 rpm
same,Log2 differential normalized TPM ratio compared to glucose,[24],1.1
same,Transcripts per million (rpm),[24],75.1 rpm
same,Log2 differential normalized TPM ratio compared to glucose,[25],3.1
same,Transcripts per million (rpm),[25],10677.4 rpm
same,Log2 differential normalized TPM ratio compared to glucose,[26],0.7
same,Transcripts per million (rpm),[26],65.3 rpm
same,Log2 differential normalized TPM ratio compared to glucose,[27],1.8
same,Transcripts per million (rpm),[27],8.5 rpm
same,Transcripts per million (rpm),gene LBA0802 (Hypothetical protein),40.6 rpm
same,Log2 differential normalized TPM ratio compared to glucose,gene LBA0861 (Polyferredoxin),0.5
same,Transcripts per million (rpm),gene LBA0861 (Polyferredoxin),272.1 rpm
same,Log2 differential normalized TPM ratio compared to glucose,gene LBA1023 (Oxidoreductase),0.3
same,Transcripts per million (rpm),gene LBA1023 (Oxidoreductase),213.6 rpm
same,Log2 differential normalized TPM ratio compared to glucose,[28],0
same,Transcripts per million (rpm),[28],31.7 rpm
same,Log2 differential normalized TPM ratio compared to glucose,[29],0.4
same,Transcripts per million (rpm),[29],43.3 rpm
same,Log2 differential normalized TPM ratio compared to glucose,gene LBA1027 (Oxidoreductase),1.5
same,Transcripts per million (rpm),gene LBA1027 (Oxidoreductase),1733.7 rpm
same,Log2 differential normalized TPM ratio compared to glucose,[30],1.2
same,Transcripts per million (rpm),[30],302.8 rpm
same,Log2 differential normalized TPM ratio compared to glucose,[31],2.1
same,Transcripts per million (rpm),[31],294.6 rpm
same,Log2 differential normalized TPM ratio compared to glucose,[32],3.7
same,Transcripts per million (rpm),[32],57.4 rpm
same,Log2 differential normalized TPM ratio compared to glucose,[33],1.6
same,Transcripts per million (rpm),[33],53.4 rpm
same,Log2 differential normalized TPM ratio compared to glucose,gene LBA1469 (UDP-glucose 4-epimerase),5
same,Log2 differential normalized TPM ratio compared to glucose,[34],0.6
same,Transcripts per million (rpm),[34],30.6 rpm
same,Log2 differential normalized TPM ratio compared to glucose,[35],1.4
same,Transcripts per million (rpm),[35],1127.6 rpm
same,Log2 differential normalized TPM ratio compared to glucose,[36],1.2
same,Transcripts per million (rpm),[36],734.7 rpm
same,Log2 differential normalized TPM ratio compared to glucose,[37],−0.2
same,Transcripts per million (rpm),[37],14 rpm
same,Log2 differential normalized TPM ratio compared to glucose,[38],0.6
same,Transcripts per million (rpm),[38],10.7 rpm
same,Log2 differential normalized TPM ratio compared to glucose,[39],0.8
same,Transcripts per million (rpm),[39],31.5 rpm
same,Log2 differential normalized TPM ratio compared to glucose,[40],0.8
same,Transcripts per million (rpm),[40],15.3 rpm
same,Log2 differential normalized TPM ratio compared to glucose,[41],1.9
same,Transcripts per million (rpm),[41],5636.3 rpm
same,Log2 differential normalized TPM ratio compared to glucose,[42],2.8
same,Transcripts per million (rpm),[42],117.6 rpm
same,Log2 differential normalized TPM ratio compared to glucose,gene LBA1796 (ABC exporter),2.5
same,Transcripts per million (rpm),gene LBA1796 (ABC exporter),52.4 rpm
same,Log2 differential normalized TPM ratio compared to glucose,[43],2.4
same,Transcripts per million (rpm),[43],43.9 rpm
same,Log2 differential normalized TPM ratio compared to glucose,[44],0.2
same,Transcripts per million (rpm),[44],31.9 rpm
